Measurements as given in patent US11975051B1, “Therapeutic peptides and uses thereof” (priority 2022, dated 2024).
Where two headings read alike, the source gives them in different places. Where no end group is shown, it is not given here. [ ]: non-standard residue; d: D form.

Columns and labels:
[1] = system: IL-6; assay: IL-6 lowering in ConA stimulated peripheral blood mononuclear cells; type: cell-based, human; conditions: 5 μg/mL ConA 72 hours, N=3
Source text: (§1) The influence of proinflammatory cytokines on the immunoregulatory function of immune cells from healthy donors may be assessed using mitogen-stimulated PBMC responses, which can be measured by determining the effect of test compounds on cytokine levels after stimulation by Concanavilin A (“ConA”). See Arneth, CURRENT PROTOCOLS IN CYTOMETRY 6.28 supplement 51 (2010); A. Erhardt et al., Immunology and Liver Disease Karger (2010); W. Ge et al., INTERNATIONAL IMMUNOPHARMACOLOGY 85 (2020); S. Malchow et al., BICHIMICA ET BIOPHYSICA ACTA 1812:290-301 (2011); A. Thomazelli et al., IMMUNOPHARMACOLOGY AND IMMUNOTOXICOLOGY, 40:5:387-392 (2018); N. Umeda et al., LEUKOCYTE BIOLOGY 791-801 (2019); H. Wang et al., WORLD JOURNAL OF GASTROENTEROLOGY 119-125 (2012).
(§2) Normal human PBMCs were stimulated with 5 μg/mL ConA for 72 hours followed by treatment with test compound, each of which are set forth in Table 6, at either 4.15 μM or 41.5 μM. Data represents mean of either TNFα or interleukin IL-6 lowering after ConA stimulation±SD. 2-way ANOVA with Dunnet's multiple comparison test; * p<0.05 (represented as +); ** p<0.01 (represented as ++); *** p<0.001 **** (represented as +++); p<0.0001 (represented as ++++); N=3 replicates. Both TNFα and IL-6 are inflammatory cytokines for which the lowering would be expected to provide therapeutic benefit for a variety of diseases. For example, TNFα is implicated in the inflammation associated with neurodegenerative and inflammatory disorders (see, e.g., G. D. Kalliolias et al., TNF biology, pathogenic mechanisms and emerging therapeutic strategies, 12(1) NATURE REVIEWS RHEUMATOLOGY 49-62 (2016)) as is […] (see, e.g., S. Kaur et al., A panoramic review of IL-6: Structure, pathophysiological roles and inhibitors, 28(5) BIOORG. MED. CHEM. 115327 (2020)).

[2] = system: ALS patient-derived ASCs; assay: Stressed ALS patient-derived ASCs treated with peptides, SeaHorse analytics (Example 6); type: cell-based, human; conditions: tested at 0.5 and/or 5 mM (TP-5 0.01-100 mM), DMSO/H2O
Source text: ALS patient-derived ASCs showing hypermetabolism and lipid sequestration were stressed and treated with peptides (shown below, column 2) and effect of the peptide measured with SeaHorse analytics.

[3] = system: TNFα; assay: TNFα lowering in ConA stimulated peripheral blood mononuclear cells; type: cell-based, human; conditions: 5 μg/mL ConA 72 hours, N=3
Source text: as §1, §2

[4] = system: ALS patients; conditions: cited from earlier work
[5] = system: patients with ALS; conditions: cited from earlier work
[6] = system: renal dialysis patients; conditions: cited from earlier work
[7] = in vivo; cited from earlier work
[8] = Mouse plasma stability; type: in vitro ADME; conditions: read-out: Mouse Plasma Stability t½
[9] = Pharmacokinetics in mice dosed IV, SC and PO; type: in vivo, mouse; conditions: mouse, in vivo, mice
[10] = Mouse (liver) microsomal stability; type: in vitro ADME; conditions: mouse, liver microsomes
[11] = also when given with other drugs; cited from earlier work
[12] = system: TDP43 model; assay: Thymalfasin in the TDP43 (Prp-TDP43^A315T) ALS mouse model; type: in vivo
Source text: (§3) In mice, thymalfasin is metabolized to the active molecule thymopentin. Because mice process the pro-molecule thymalfasin into thymopentin as do humans, thymalfasin may illuminate the effects of thymopentin by increasing target engagement afforded by the pro-molecule.

[13] = system: SOD1^G93A model; assay: Thymalfasin in the SOD1^G93A ALS mouse model; type: in vivo
Source text: as §3

| Compound | IL-6 lowering after ConA stimulation (significance) ([1]; 4.15 μM test compound) | IL-6 lowering after ConA stimulation (significance) ([1]; 41.5 μM test compound) | Conc. with positive effect [2] | TNFα lowering after ConA stimulation (significance) ([3]; 4.15 μM test compound) | TNFα lowering after ConA stimulation (significance) ([3]; 41.5 μM test compound) | further results |
| --- | --- | --- | --- | --- | --- | --- |
| 1 (RKDVY) [Compound 1] | + (* p<0.05 (represented as +)) | +++ (*** p<0.001 **** (represented as +++)) | none | +++ (*** p<0.001 **** (represented as +++)) | ++++ (p<0.0001 (represented as ++++)) | – |
| 6 (Ac-[dY][dV][dD][dK][dR]-NHMe) [Compound 6] | + (* p<0.05 (represented as +)) | ++++ (p<0.0001 (represented as ++++)) | 5 mM | ++++ (p<0.0001 (represented as ++++)) | ++++ (p<0.0001 (represented as ++++)) | – |
| 8 (Ac-[dY][dV][dD][dK][dR]-NH2) [Compound 8] | – | – | 5 mM | – | – | – |
| CC1=NN(c2ccccc2)C(=O)C1 [Edavarone] | – | – | – | – | – | slowing of the progression of disease [4]: 33% |
| Nc1nc2ccc(OC(F)(F)F)cc2s1 [Riluzole] | – | – | – | – | – | extension of life [5]: several months |
| Ac-Arg-Lys-Asp-Val-Tyr-NH2 (Ac-RKDVY-NH2) [Compound 3] | – | +++ (*** p<0.001 **** (represented as +++)) | none | + (* p<0.05 (represented as +)) | ++ (** p<0.01 (represented as ++)) | – |
| Ac-Arg-Lys-Asp-Val-Tyr-NHMe (Ac-RKDVY-NHMe; SMILES CNC(=O)[C@H](Cc1ccc(O)cc1)NC(=O)[C@@H](NC(=O)[C@H](CC(=O)O)NC(=O)[C@H](CCCCN)NC(=O)[C@H](CCCNC(=N)N)NC(C)=O)C(C)C) [Compound 5] | + (* p<0.05 (represented as +)) | ++ (** p<0.01 (represented as ++)) | none | – | + (* p<0.05 (represented as +)) | – |
| Arg-Lys-Asp-Val-Tyr-NH2 (RKDVY-NH2) [Compound 2] | ++ (** p<0.01 (represented as ++)) | +++ (*** p<0.001 **** (represented as +++)) | none | ++ (** p<0.01 (represented as ++)) | ++ (** p<0.01 (represented as ++)) | – |
| Arg-Lys-Asp-Val-Tyr-NHMe (RKDVY-NHMe) [Compound 4] | + (* p<0.05 (represented as +)) | ++ (** p<0.01 (represented as ++)) | none | ++ (** p<0.01 (represented as ++)) | +++ (*** p<0.001 **** (represented as +++)) | – |
| D-Tyr-D-Val-D-Asp-D-Lys-D-Arg-NH2 ([dY][dV][dD][dK][dR]-NH2) [Compound 7] | – | – | 0.5 mM | – | – | – |
| RKDVY [TP-5, Arg-Lys-Asp-Val-Tyr, reference compound] | – | – | – | – | – | IL-6, IL-8, TNF and CRP [6]: reduced; superoxide dismutase (SOD), state of oxidative stress [6]: increasing; half-life of exogenous thymopentin [7]: seconds; half-life [8]: 23.1 min; half-life ([9]; IV, read-out: IV t½, mice): 5.58 min; bioavailability ([9]; PO, read-out: PO % F, mice): 36%; AUC(0-inf) ([9]; PO, read-out: PO AUCinf): 1270 ng·h/mL; Cmax ([9]; PO, read-out: PO Cmax): 1370 ng/mL; half-life ([9]; PO, read-out: PO t½, mice): 7.72 min; bioavailability ([9]; SC, read-out: SC % F, mice): 39%; AUC(0-inf) ([9]; SC, read-out: SC AUCinf): 126 ng·h/mL; Cmax ([9]; SC, read-out: SC Cmax): 133 ng/mL; half-life ([9]; SC, read-out: SC t½, mice): 8.92 min; half-life ([10]; mouse liver microsomes, read-out: stability in mouse liver microsomes, half-life): 23.1 min; half-life ([10]; mouse microsomes, read-out: Mouse Microsomal Stability t½): > 60 min; safety / tolerability [11]: well tolerated |
| thymalfasin: thymosin α (Tα1), 28 amino acids, commercially available as ZADAXIN; pro-molecule metabolized to thymopentin (Ac-SDAAVDTSSEITTKDLKEKKEVVEEAEN; UniProt P06454 2-29, looked up) | – | – | – | – | – | growth and strength (based on wire hang tests) ([12]; TDP-43 mouse model): improvement; disease phenotype ([12]; TDP-43 mouse model, one cohort): prevented in one cohort; Iba1 and brain GFAP, measures of inflammation ([12]; treated mice): Statistically-significant reduction; ubiquitin in brain tissue and spinal cord on histopathology [13]: statistically-significant reduction |
